# What was measured:
# [1] = system: adjuvant-associated biological themes in LV, SP, LN; details: LV, ID
# How it was run: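 Enrichment score S sums −log(p) over consensus themes whose names contain a pre-selected adjuvant-associated term such as "stress" or "cytokine". Consensus requires a theme in all three mice of a group, p<0.05. Themes come from TargetMine analysis of genes with eij/ei(c)>2.0, Fisher's exact test, Holm-Bonferroni-corrected.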
# liver (LV) = experiment: Whole organ transcriptome (GeneChip microarray) of liver 6 h after adjuvant administration: sDEGs, hierarchical clustering; assay type: in vivo, C57BL/6 mice; details: hierarchical clustering, liver; also: key: G1 (interferon signaling); G2 (metabolism of lipids and lipoproteins); G3 (response to stress); G4 (response to wounding); G5 (phosphate-containing compound metabolic process); G6 (phagosome)
# [2] = literature reports; cited from earlier work
smiles,measurement,setting,value
"Nc1nc2c(ncn2[C@@H]2O[C@@H]3COP(=O)(O)O[C@H]4[C@@H](O)[C@H](n5cnc6c(=O)[nH]c(N)nc65)O[C@@H]4COP(=O)(O)O[C@H]3[C@H]2O)c(=O)[nH]1 [cdiGMP, Cyclic diguanylate monophosphate]",GO annotation: Cytokine-cytokine receptor interaction (Term: cytokine),[1],13.8
same,GO annotation: Cytokine-cytokine receptor interaction|Endocytosis (Term: cytokine),[1],33.9
same,GO annotation: I-kappaB kinase/NF-kappaB signaling (Term: NF-kappa B signaling pathway),[1],13.8
same,GO annotation: NF-kappa B signaling pathway (Term: NF-kappa B signaling pathway),[1],15.7
same,GO annotation: TNF signaling pathway (Term: TNF signaling pathway),[1],31.3
same,GO annotation: activation of immune response (Term: immune response),[1],17.9
same,GO annotation: activation of innate immune response (Term: innate immune response),[1],21.2
same,GO annotation: acute inflammatory response (Term: inflammatory response),[1],0
same,GO annotation: adaptive immune response (Term: adaptive immune response),[1],10
same,GO annotation: adaptive immune response based on somatic recombination of immune receptors built from immunoglobulin superfamily domains (Term: adaptive immune response),[1],10.6
same,GO annotation: apoptotic process (Term: apoptosis),[1],12.1
same,GO annotation: apoptotic signaling pathway (Term: apoptosis),[1],0
same,GO annotation: cell chemotaxis (Term: chemotaxis),[1],0
same,GO annotation: cell death (Term: cell death),[1],17.7
same,GO annotation: cell migration (Term: migration),[1],0
same,GO annotation: cellular response to cytokine stimulus (Term: cytokine),[1],38.8
same,GO annotation: cellular response to interferon-alpha (Term: IFN alpha),[1],7.42
same,GO annotation: cellular response to stress (Term: stress),[1],0
same,GO annotation: chemokine production (Term: chemokine),[1],8.52
same,GO annotation: chemokine-mediated signaling pathway (Term: chemokine),[1],5.9
same,GO annotation: chemotaxis (Term: chemotaxis),[1],0
same,GO annotation: cytokine biosynthetic process (Term: cytokine),[1],7.93
same,GO annotation: cytokine metabolic process (Term: cytokine),[1],7.39
same,GO annotation: cytokine production (Term: cytokine),[1],31.3
same,GO annotation: cytokine secretion (Term: cytokine),[1],0
same,GO annotation: cytokine-mediated signaling pathway (Term: cytokine),[1],20
same,GO annotation: death (Term: cell death),[1],12.1
same,GO annotation: defense response (Term: defense response),[1],80.9
same,GO annotation: defense response to Gram-positive bacterium (Term: defense response),[1],7.18
same,GO annotation: defense response to bacterium (Term: defense response),[1],10.5
same,GO annotation: defense response to other organism (Term: defense response),[1],44.1
same,GO annotation: defense response to protozoan (Term: defense response),[1],5.31
same,GO annotation: defense response to virus (Term: defense response),[1],24.6
same,GO annotation: granulocyte chemotaxis (Term: chemotaxis),[1],0
same,GO annotation: granulocyte migration (Term: migration),[1],0
same,GO annotation: immune response (Term: immune response),[1],52.3
same,GO annotation: immune response-activating signal transduction (Term: immune response),[1],19.3
same,GO annotation: immune response-regulating signaling pathway (Term: immune response),[1],23.5
same,GO annotation: inflammatory response (Term: inflammatory response),[1],26.1
same,GO annotation: innate immune response (Term: innate immune response),[1],40.7
same,GO annotation: innate immune response-activating signal transduction (Term: innate immune response),[1],20.3
same,GO annotation: interferon-alpha production (Term: IFN alpha),[1],7.69
same,GO annotation: intrinsic apoptotic signaling pathway (Term: apoptosis),[1],0
same,GO annotation: leukocyte chemotaxis (Term: chemotaxis),[1],0
same,GO annotation: leukocyte migration (Term: migration),[1],0
same,GO annotation: leukocyte migration involved in inflammatory response (Term: inflammatory response),[1],0
same,GO annotation: lymphocyte chemotaxis (Term: chemotaxis),[1],0
same,GO annotation: lymphocyte migration (Term: migration),[1],0
same,GO annotation: myeloid leukocyte migration (Term: migration),[1],0
same,GO annotation: negative regulation of apoptotic process (Term: apoptosis),[1],0
same,GO annotation: negative regulation of cell death (Term: cell death),[1],0
same,GO annotation: negative regulation of cytokine production (Term: cytokine),[1],6.2
same,GO annotation: negative regulation of defense response (Term: defense response),[1],8.05
same,GO annotation: negative regulation of immune response (Term: immune response),[1],6.54
same,GO annotation: negative regulation of innate immune response (Term: innate immune response),[1],10.4
same,GO annotation: negative regulation of programmed cell death (Term: cell death),[1],0
same,GO annotation: neutrophil chemotaxis (Term: chemotaxis),[1],0
same,GO annotation: neutrophil migration (Term: migration),[1],0
same,GO annotation: positive regulation of I-kappaB kinase/NF-kappaB signaling (Term: NF-kappa B signaling pathway),[1],7.15
same,GO annotation: positive regulation of adaptive immune response (Term: adaptive immune response),[1],0
same,GO annotation: positive regulation of apoptotic process (Term: apoptosis),[1],0
same,GO annotation: positive regulation of cell death (Term: cell death),[1],0
same,GO annotation: positive regulation of cell migration (Term: migration),[1],0
same,GO annotation: positive regulation of chemokine production (Term: chemokine),[1],8.31
same,GO annotation: positive regulation of chemotaxis (Term: chemotaxis),[1],0
same,GO annotation: positive regulation of cytokine biosynthetic process (Term: cytokine),[1],3.62
same,GO annotation: positive regulation of cytokine production (Term: cytokine),[1],23.6
same,GO annotation: positive regulation of defense response (Term: defense response),[1],35.8
same,GO annotation: positive regulation of immune response (Term: immune response),[1],24.4
same,GO annotation: positive regulation of inflammatory response (Term: inflammatory response),[1],0
same,GO annotation: positive regulation of innate immune response (Term: innate immune response),[1],22.3
same,GO annotation: positive regulation of interferon-alpha production (Term: IFN alpha),[1],8.97
same,GO annotation: positive regulation of leukocyte chemotaxis (Term: chemotaxis),[1],0
same,GO annotation: positive regulation of leukocyte migration (Term: migration),[1],3.33
same,GO annotation: positive regulation of programmed cell death (Term: cell death),[1],0
same,GO annotation: positive regulation of response to wounding (Term: wounding),[1],0
same,GO annotation: positive regulation of tumor necrosis factor superfamily cytokine (Term: cytokine),[1],0
same,GO annotation: production of molecular mediator of immune response (Term: immune response),[1],0
same,GO annotation: programmed cell death (Term: cell death),[1],14
same,GO annotation: regulation of I-kappaB kinase/NF-kappaB signaling (Term: NF-kappa B signaling pathway),[1],8.16
same,GO annotation: regulation of adaptive immune response (Term: adaptive immune response),[1],8.01
same,GO annotation: regulation of adaptive immune response based on somatic recombination of immune receptors built from immunoglobulin superfamily domains (Term: adaptive immune response),[1],3.64
same,GO annotation: regulation of apoptotic process (Term: apoptosis),[1],4.93
same,GO annotation: regulation of apoptotic signaling pathway (Term: apoptosis),[1],0
same,GO annotation: regulation of cell death (Term: cell death),[1],4.48
same,GO annotation: regulation of cell migration (Term: migration),[1],0
same,GO annotation: regulation of chemokine production (Term: chemokine),[1],9.64
same,GO annotation: regulation of chemotaxis (Term: chemotaxis),[1],0
same,GO annotation: regulation of cytokine biosynthetic process (Term: cytokine),[1],3.81
same,GO annotation: regulation of cytokine production (Term: cytokine),[1],31.6
same,GO annotation: regulation of defense response (Term: defense response),[1],56.5
same,GO annotation: regulation of defense response to virus (Term: defense response),[1],0
same,GO annotation: regulation of defense response to virus by host (Term: defense response),[1],0
same,GO annotation: regulation of immune response (Term: immune response),[1],29.4
same,GO annotation: regulation of inflammatory response (Term: inflammatory response),[1],12.3
same,GO annotation: regulation of innate immune response (Term: innate immune response),[1],33.4
same,GO annotation: regulation of interferon-alpha production (Term: IFN alpha),[1],8.3
same,GO annotation: regulation of intrinsic apoptotic signaling pathway (Term: apoptosis),[1],0
same,GO annotation: regulation of leukocyte chemotaxis (Term: chemotaxis),[1],0
same,GO annotation: regulation of leukocyte migration (Term: migration),[1],0
same,GO annotation: regulation of programmed cell death (Term: cell death),[1],5.36
same,GO annotation: regulation of response to stress (Term: stress),[1],42.9
same,GO annotation: regulation of response to wounding (Term: wounding),[1],10.7
same,GO annotation: regulation of tumor necrosis factor superfamily cytokine production (Term: cytokine),[1],4.03
same,GO annotation: response to cytokine (Term: cytokine),[1],56.3
same,GO annotation: response to interferon-alpha (Term: IFN alpha),[1],12.6
same,GO annotation: response to stress (Term: stress),[1],56.2
same,GO annotation: response to wounding (Term: wounding),[1],11.4
same,GO annotation: taxis (Term: chemotaxis),[1],0
same,GO annotation: tumor necrosis factor superfamily cytokine production (Term: cytokine),[1],3.79
same,IFN beta: cellular response to interferon-beta,[1],23.1
same,IFN beta: interferon-beta production,[1],8.61
same,IFN beta: positive regulation of interferon-beta production,[1],13.2
same,IFN beta: regulation of interferon-beta production,[1],9.22
same,IFN beta: response to interferon-beta,[1],26.5
same,IFN gamma: cellular response to interferon-gamma,[1],10.1
same,IFN gamma: interferon-gamma production,[1],5.35
same,IFN gamma: regulation of interferon-gamma production,[1],0
same,IFN gamma: response to interferon-gamma,[1],10.8
same,interleukin-6: interleukin-6 production,[1],7.8
same,interleukin-6: positive regulation of interleukin-6 production,[1],0
same,interleukin-6: regulation of interleukin-6 production,[1],8.27
same,interleukin-12: interleukin-12 production,[1],6.51
same,interleukin-12: positive regulation of interleukin-12 production,[1],0
same,interleukin-12: regulation of interleukin-12 production,[1],6.99
same,adjuvant group (cluster) in LV,liver (LV),G1
same,Th response induced,[2],appears to induce Th1 responses

# Reference: US20230021483A1, “[…] […] METHOD AND CLASSIFICATION OF PHARMACEUTICAL COMPONENTS BY USING TRANSCRIPTOMES” (National Institutes of Biomedical Innovation, Health and …, priority 2016, published 2023)
